The numbers were not newly measured in US6413525B1, “Methods of exfoliation using N-acetyl glucosamine” (Color Access, Inc., priority 1999, dated 2002), which cites them from elsewhere.

The structures appear in SMILES notation.

The subject of the series is skin. The following applies: as disclosed in WO97/12597.

As to `CC(=O)N[C@H]1C(O)O[C@H](CO)[C@@H](O)[C@@H]1O` (stereo partly drawn) [N-acetyl-D-glucosamine], the “efficacy as a topical desquamating agent” value was “not found to be effective”.
